Data: publication PMC5241826, “An extended N-H bond, driven by a conserved second-order interaction, orients the flavin N5 orbital in cholesterol oxidase” (Scientific Reports, 2017)

Biological target: T1, cholesterol oxidase (COx; H/D-COx) (Streptomyces sp. SA-COO, UniProt P12676)
T1 construct: gene choA; secreted mature form; H/D-exchanged crystal
Test: joint X-ray/neutron crystal structure, […] A neutron, […] A X-ray
Format: binding
Conditions: H/D-exchanged crystal (D2O soak), room-temperature neutron data, crystallised at pH 5.2; Gly120 N-H to FAD N5 hydrogen bond

T1 sequence (P12676 43-546): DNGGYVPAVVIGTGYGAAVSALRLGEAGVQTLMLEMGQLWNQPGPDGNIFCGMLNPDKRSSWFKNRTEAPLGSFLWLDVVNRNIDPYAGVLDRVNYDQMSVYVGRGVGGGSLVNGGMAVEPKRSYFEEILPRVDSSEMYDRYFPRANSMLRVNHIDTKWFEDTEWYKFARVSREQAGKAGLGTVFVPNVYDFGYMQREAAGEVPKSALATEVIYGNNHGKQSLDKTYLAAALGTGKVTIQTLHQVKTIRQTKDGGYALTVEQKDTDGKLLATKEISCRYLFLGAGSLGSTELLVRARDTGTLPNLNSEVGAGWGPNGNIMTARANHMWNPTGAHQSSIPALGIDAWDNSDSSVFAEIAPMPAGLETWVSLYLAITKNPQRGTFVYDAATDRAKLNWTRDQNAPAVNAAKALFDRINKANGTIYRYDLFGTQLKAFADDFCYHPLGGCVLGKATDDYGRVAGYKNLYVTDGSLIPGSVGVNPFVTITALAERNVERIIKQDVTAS

Cc1cc2nc3c(=O)[nH]c(=O)nc-3n(C[C@H](O)[C@H](O)[C@H](O)COP(=O)(O)OP(=O)(O)OC[C@H]3O[C@@H](n4cnc5c(N)ncnc54)[C@H](O)[C@@H]3O)c2cc1C [FAD]
joint X-ray/neutron crystal structure, 2.2 A neutron, 1.5 A X-ray: one involved in a conserved hydrogen bond between Gly120-NH and FAD-N5
